Where a name gives a salt, the structure may show the parent alone.
System: kidney
Test: Transcriptional profiling on Affymetrix GeneChips, single dose, naïve mice: kidney
Format: in vivo, C57BL/6 mice
Conditions: 100 DMF-vs-Veh, 2 h
Experimental: Treated mice were sacrificed at 2, 7, or 12 hours. Tissues (liver, spleen, kidney, jejunum, cortex, hippocampus, striatum and whole blood) were collected and analyzed by transcriptional profiling on mouse Affymetrix GeneChips.
Tissues (liver, spleen, kidney, jejunum, cortex, hippocampus, striatum and whole blood) were collected and analyzed by transcriptional profiling on mouse Affymetrix GeneChips.
Animals were exposed to CO2 and whole blood collected via cardiac puncture. Two 100 μl aliquots of whole blood were collected in 1.5 mL microcentrifuge tubes and snap frozen in liquid nitrogen. Peripheral (liver, spleen, kidney and jejunum) and CNS brain (cerebellum, hippocampus, striatum and cortex) tissues were harvested and snap frozen in liquid nitrogen, with special care taken to collect tissues of similar size and from the same location. All samples were stored at −80° C. until RNA extraction was conducted.
For RNA preparation, frozen tissues were placed in 2 mL RNAse-free 96-well blocks with 1.5 mL QIAzol Lysis Reagent (QIAgen) and a 3.2 mm stainless steel bead (BioSpec Products, Bartlesville, Okla.). Tissues were disrupted for four cycles of 45 seconds in a Mini-Beadbeater (Biospec Products). RNA was extracted in chloroform and the aqueous phase was mixed with an equal volume of 70% ethanol. Extracted RNA was applied to RNeasy 96 plates and purified by the spin method according to the manufacturer's protocol (RNeasy 96 Universal Tissue Protocol, QIAgen, Hilden Germany).
Automated sample amplifications and biotin labelings were carried out using the NuGEN Ovation RNA Amplification system V2 (Cat #3100), Ovation WB reagent (Cat #1300) and Encore Biotin module (Cat #4200) (NuGEN Technologies, Inc, San Carlos, Calif.) according to manufacturer's recommendations using an Arrayplex automated liquid handler (Beckman Coulter, Indianapolis, Ind.). Two micrograms of biotin labeled sscDNA probe were hybridized to Affymetrix GeneChip Affymetrix HT_MG-430_PM plate arrays with modified conditions as described in Allaire et al. Washing and staining of the hybridized arrays were completed as described in the GeneChip Expression analysis technical manual for HT plate arrays using the Genechip® Array Station (Affymetrix, Santa Clara, Calif.) with modifications as described in Allaire et al. The processed GeneChip® plate arrays were scanned using GeneTitan scanner (Affymetrix, Santa Clara, Calif.).
Affymetrix scans were subject to quality control (QC) measures. These tests included a visual inspection of the distribution of raw signal intensities and an assessment of RNA degradation, relative log expression (RLE), and normalized unsealed standard error (NUSE). All sample scans that passed these QC metrics were included in the analysis.
All CEL files were subjected to GC-content-based Robust Multi-array Average (GCRMA) normalization (version 2.20.0) (Irizarry R A, et al. Nucleic Acids Res 2003; 31:e15; Li C, et al. Genome Biol 2001; 2:[…]0032). Expression levels were log (base 2) transformed.
All calculations and analyses were carried out using R (version 2.11.1) and Bioconductor computational tools (Gentleman R. Springer Science+Business Media 2005).

COC(=O)/C=C/C(=O)OC [DMF, dimethyl fumarate]
FC 1200016B10Rik 1428654_PM_at: 1.59 | FC 1200016B10Rik 1452859_PM_at: 1.62 | FC 1438879_PM_at: −1.61 | FC 1439292_PM_at: 2.14 | FC 1440076_PM_at: 3.71 | FC 1440084_PM_at: −1.57 | FC 1440304_PM_at: −1.68 | FC 1440457_PM_at: 1.76 | FC 1440660_PM_at: −1.56 | FC 1441155_PM_at: 1.51 | FC 1441360_PM_at: 1.55 | FC 1441413_PM_at: 1.88 | FC 1441455_PM_at: 1.58 | FC 1441482_PM_at: −2.08 | FC 1441484_PM_at: −1.79 | FC 1441518_PM_at: −1.67 | FC 1441794_PM_at: −1.72 | FC 1442422_PM_at: 1.74 | FC 1442483_PM_at: −1.59 | FC 1442504_PM_at: −1.70 | FC 1442506_PM_at: 5.76 | FC 1442671_PM_at: 1.55 | FC 1442725_PM_at: −1.53 | FC 1442928_PM_at: 1.66 | FC 1443100_PM_at: −1.63 | FC 1443109_PM_at: 1.69 | FC 1443289_PM_at: −1.65 | FC 1443335_PM_at: −1.78 | FC 1443546_PM_at: 1.74 | FC 1443566_PM_at: −1.76 | FC 1443673_PM_x_at: 2.06 | FC 1444021_PM_at: 3.24 | FC 1444057_PM_at: 1.75 | FC 1444111_PM_at: −1.67 | FC 1444212_PM_at: 1.57 | FC 1444227_PM_at: 1.56 | FC 1444265_PM_at: 1.93 | FC 1445290_PM_at: −1.52 | FC 1445349_PM_at: −1.70 | FC 1445600_PM_at: −1.65 | FC 1445664_PM_at: −1.60 | FC 1446075_PM_at: −1.62 | FC 1446172_PM_at: 1.85 | FC 1446621_PM_at: 1.74 | FC 1446921_PM_at: 1.58 | FC 1447172_PM_at: −1.61 | FC 1447396_PM_at: −1.90 | FC 1447411_PM_at: 4.68 | FC 1700012D14Rik 1438880_PM_at: −1.55 | FC 1810013L24Rik 1431018_PM_at: 1.50 | FC 2200002K05Rik 1428400_PM_at: −1.79 | FC 2210403K04Rik 1428562_PM_at: 1.86 | FC 2210416J07Rik 1432665_PM_at: −1.87 | FC 2410089E03Rik 1443422_PM_at: −1.72 | FC 2810029C07Rik 1428686_PM_at: −1.58 | FC 2900011L18Rik 1432757_PM_at: 1.62 | FC 4833418N02Rik 1430686_PM_at: −1.51 | FC 4921509J17Rik 1430244_PM_at: 1.60 | FC 4932416J16Rik 1430783_PM_at: −1.67 | FC 4933427G17Rik 1431905_PM_s_at: −1.65 | FC 5830487K18Rik 1432625_PM_at: −1.90 | FC 6430571L13Rik 1439669_PM_at: −1.85 | FC 9130221J17Rik (1443159_PM_at): 9.22 | FC 9530086O07Rik 1430392_PM_at: −1.52 | FC A130012E19Rik 1440671_PM_at: 1.56 | FC AI845619 1442726_PM_s_at: 5.44 | FC Aars 1451083_PM_s_at: 1.53 | FC Abce1 1442071_PM_at: 1.53 | FC Acvr2b 1419140_PM_at: −1.51 | FC Adamts1 1450716_PM_at: 1.86 | FC Adamts15 1427056_PM_at: −2.26 | FC Ahsa2 1435160_PM_at: 1.64 | FC Aldh2 1437410_PM_at: 1.69 | FC Alkbh1 1434660_PM_at: 1.53 | FC Anxa7 1438764_PM_at: 1.88 | FC Aox1 (1419435_PM_at): 2.46 | FC Arl5b 1437884_PM_at: 1.93

Reference: patent US20160115540A1, “PRODRUGS AND DRUGS” (Biogen MA Inc., priority 2013, published 2016)
